Test results reported in patent US5700808A, “5- or 6-substituted β-carboline-3-carboxylic acid esters” (Schering Aktiengesellschaft, priority 1986, dated 1997).

Experiments:
bioavailability in rats = conditions: rat, in vivo
benzodiazepine receptor = experiment: in vivo binding test (reduction of specific flunitrazepam binding in a living brain); conditions: dose reducing specific binding of flunitrazepam to the benzodiazepine receptor in a living brain to 50% of the control value
Text: The ED50 in vivo value represents the dose of a test compound effecting a reduction in specific binding of flunitrazepam to the benzodiazepine receptor in a living brain to 50% of the control value.

[1] = chimney test (motor discoordination); format: in vivo; conditions: ip, higher ED50 is better, as it indicates lower activity in inducing motor discoordination
Method: The chimney test was performed according to the method of Poissier, Jr., et al. Med. Exp. 3: 81-84 (1960). The higher the ED50 value in the chimney test the better, since this indicates a lower activity in inducing motor discoordination.

SMILES	bioavailability (bioavailability in rats) [%]	ED50 mg/kg in vivo (benzodiazepine receptor) [mg/kg]	TD50 [1] [mg/kg]
CCOC(=O)c1ncc2[nH]c3ccc(OCc4ccccc4)cc3c2c1COC [A, 6-benzyloxy-4-methoxymethyl-beta-carboline-3-carboxylic acid ethyl ester]	17	5.6	12.1
COCc1c(C(=O)OC(C)C)ncc2[nH]c3ccc(OCc4ccccc4)cc3c12 [B, 6-benzyloxy-4-methoxymethyl-beta-carboline-3-carboxylic acid ispropyl ester]	32	0.4	> 50
